Results: ChEMBL document CHEMBL4028801, “A multifactorial approach to hepatobiliary transporter assessment enables improved therapeutic compound development” (Toxicol Sci, 2013)

Key:
[1] = target: Bile salt export pump (Homo sapiens, UniProt O95342); experiment: Inhibition of human BSEP overexpressed in Sf9 cell membrane vesicles assessed as uptake of [3H]-taurocholate in presence of ATP measured after 15 to 20 mins by membrane vesicle transport assay; type: ADME, cell-based
[2] = target: ATP-binding cassette sub-family C member 2 (Homo sapiens, UniProt Q92887); experiment: Inhibition of human MRP2 overexpressed in Sf9 cell membrane vesicles assessed as uptake of [3H]-estradiol-17beta-D-glucuronide in presence of ATP and GSH measured after 20 mins by membrane vesicle transport assay
[3] = target: ATP-binding cassette sub-family C member 3 (Homo sapiens, UniProt O15438); experiment: Inhibition of human MRP3 overexpressed in Sf9 insect cell membrane vesicles assessed as uptake of [3H]-estradiol-17beta-D-glucuronide in presence of ATP and GSH measured after 10 mins by membrane vesicle transport assay; type: ADME, cell-based
[4] = target: T1, ATP-binding cassette sub-family C member 4 (Homo sapiens, UniProt O15439); experiment: Inhibition of human MRP4 overexpressed in Sf9 cell membrane vesicles assessed as uptake of [3H]-estradiol-17beta-D-glucuronide in presence of ATP and GSH measured after 20 mins by membrane vesicle transport assay; type: ADME, cell-based
T1 sequence (O15439 whole entry): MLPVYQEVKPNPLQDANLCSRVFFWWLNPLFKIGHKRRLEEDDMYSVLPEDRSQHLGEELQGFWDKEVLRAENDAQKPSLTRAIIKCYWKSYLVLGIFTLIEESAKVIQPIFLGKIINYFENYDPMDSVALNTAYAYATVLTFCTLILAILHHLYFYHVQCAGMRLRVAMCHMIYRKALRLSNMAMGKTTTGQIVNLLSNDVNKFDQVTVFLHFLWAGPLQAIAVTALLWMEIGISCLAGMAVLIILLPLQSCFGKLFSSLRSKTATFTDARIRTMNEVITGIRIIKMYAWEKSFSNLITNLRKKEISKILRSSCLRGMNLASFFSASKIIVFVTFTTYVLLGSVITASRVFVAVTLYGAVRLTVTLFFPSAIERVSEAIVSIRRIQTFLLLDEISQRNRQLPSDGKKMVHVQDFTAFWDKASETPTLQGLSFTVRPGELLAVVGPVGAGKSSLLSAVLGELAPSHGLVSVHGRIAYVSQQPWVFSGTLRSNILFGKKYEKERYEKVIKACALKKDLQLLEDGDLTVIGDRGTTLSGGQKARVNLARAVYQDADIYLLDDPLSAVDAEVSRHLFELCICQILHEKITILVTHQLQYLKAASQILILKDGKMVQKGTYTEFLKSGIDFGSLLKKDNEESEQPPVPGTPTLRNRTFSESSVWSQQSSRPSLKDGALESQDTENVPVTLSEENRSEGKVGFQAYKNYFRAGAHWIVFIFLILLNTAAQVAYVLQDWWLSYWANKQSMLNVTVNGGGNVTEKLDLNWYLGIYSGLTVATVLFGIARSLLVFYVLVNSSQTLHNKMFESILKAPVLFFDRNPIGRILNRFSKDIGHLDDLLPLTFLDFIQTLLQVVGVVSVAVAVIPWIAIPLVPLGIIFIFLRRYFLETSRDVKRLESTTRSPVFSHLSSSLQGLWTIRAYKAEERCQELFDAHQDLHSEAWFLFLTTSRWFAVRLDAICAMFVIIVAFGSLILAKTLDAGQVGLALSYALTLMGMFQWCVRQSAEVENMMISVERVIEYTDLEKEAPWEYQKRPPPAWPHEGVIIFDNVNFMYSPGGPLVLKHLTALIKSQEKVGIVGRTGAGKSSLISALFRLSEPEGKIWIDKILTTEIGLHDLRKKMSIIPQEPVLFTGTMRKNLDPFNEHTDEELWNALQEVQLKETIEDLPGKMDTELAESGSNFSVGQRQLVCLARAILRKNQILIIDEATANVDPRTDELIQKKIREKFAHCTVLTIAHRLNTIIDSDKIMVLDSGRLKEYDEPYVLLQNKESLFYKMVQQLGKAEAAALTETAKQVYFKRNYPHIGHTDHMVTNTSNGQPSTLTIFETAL

[5] = AUC in human at 20 to 100 mg, po QD or 60 mg, po BID after 12 hrs; type: ADME, organism-based; settings: in vivo
[6] = Drug concentration at steady state in human at 20 to 100 mg, po QD or 60 mg, po BID after 12 hrs; type: ADME, organism-based; settings: in vivo, read-out: Css
[7] = Ratio of drug concentration at steady state in human at 20 to 100 mg, po QD or 60 mg, po BID after 12 hrs to IC50 for human BSEP overexpressed in Sf9 insect cells; type: ADME, organism-based; settings: in vivo
[8] = Drug concentration at steady state in human at 200 to 1200 mg, po QD after 24 hrs; settings: in vivo
[9] = clinical; settings: human, in vivo, po
[10] = tested on: Homo sapiens; experiment: Drug concentration at steady state in human at 25 to 50 mg, po TID after 8 hrs; type: ADME, organism-based; settings: in vivo
[11] = AUC in human at 0.5 to 2 mg/kg, po QD after 24 hrs; type: ADME, organism-based; settings: in vivo
[12] = Drug concentration at steady state in human at 0.5 to 2 mg/kg, po QD after 24 hrs; type: ADME, organism-based; settings: in vivo, read-out: Css
[13] = Ratio of drug concentration at steady state in human at 0.5 to 2 mg/kg, po QD after 24 hrs to IC50 for human BSEP overexpressed in Sf9 insect cells; type: ADME, organism-based; settings: in vivo
[14] = AUC in human at 10 to 20 mg, po BID after 12 hrs; type: ADME, organism-based; settings: in vivo
[15] = Drug concentration at steady state in human at 10 to 20 mg, po BID after 12 hrs; type: ADME, organism-based; settings: in vivo, read-out: Css
[16] = Ratio of drug concentration at steady state in human at 10 to 20 mg, po BID after 12 hrs to IC50 for human BSEP overexpressed in Sf9 insect cells; type: ADME, organism-based; settings: in vivo
[17] = Ratio of drug concentration at steady state in human at 10 to 20 mg, po BID after 12 hrs to IC50 for human MRP2 overexpressed in Sf9 insect cells; type: ADME, organism-based; settings: in vivo
[18] = Ratio of drug concentration at steady state in human at 10 to 20 mg, po BID after 12 hrs to IC50 for human MRP4 overexpressed in Sf9 insect cells; type: ADME, organism-based; settings: in vivo
[19] = AUC in human at 10 to 20 mg, po QID after 6 hrs; type: ADME, organism-based; settings: in vivo
[20] = Drug concentration at steady state in human at 10 to 20 mg, po QID after 6 hrs; type: ADME, organism-based; settings: in vivo, read-out: Css
[21] = Ratio of drug concentration at steady state in human at 10 to 20 mg, po QID after 6 hrs to IC50 for human BSEP overexpressed in Sf9 insect cells; type: ADME, organism-based; settings: in vivo
[22] = AUC in human at 15 to 120 mg, po QD after 24 hrs; type: ADME, organism-based; settings: in vivo
[23] = Drug concentration at steady state in human at 15 to 120 mg, po QD after 24 hrs; type: ADME, organism-based; settings: in vivo, read-out: Css
[24] = Ratio of drug concentration at steady state in human at 15 to 120 mg, po QD after 24 hrs to IC50 for human BSEP overexpressed in Sf9 insect cells; type: ADME, organism-based; settings: in vivo
[25] = Ratio of drug concentration at steady state in human at 15 to 120 mg, po QD after 24 hrs to IC50 for human MRP3 overexpressed in Sf9 insect cells; type: ADME, organism-based; settings: in vivo
[26] = Ratio of drug concentration at steady state in human at 15 to 120 mg, po QD after 24 hrs to IC50 for human MRP4 overexpressed in Sf9 insect cells; type: ADME, organism-based; settings: in vivo

Chain of Bile salt export pump (O95342 whole entry): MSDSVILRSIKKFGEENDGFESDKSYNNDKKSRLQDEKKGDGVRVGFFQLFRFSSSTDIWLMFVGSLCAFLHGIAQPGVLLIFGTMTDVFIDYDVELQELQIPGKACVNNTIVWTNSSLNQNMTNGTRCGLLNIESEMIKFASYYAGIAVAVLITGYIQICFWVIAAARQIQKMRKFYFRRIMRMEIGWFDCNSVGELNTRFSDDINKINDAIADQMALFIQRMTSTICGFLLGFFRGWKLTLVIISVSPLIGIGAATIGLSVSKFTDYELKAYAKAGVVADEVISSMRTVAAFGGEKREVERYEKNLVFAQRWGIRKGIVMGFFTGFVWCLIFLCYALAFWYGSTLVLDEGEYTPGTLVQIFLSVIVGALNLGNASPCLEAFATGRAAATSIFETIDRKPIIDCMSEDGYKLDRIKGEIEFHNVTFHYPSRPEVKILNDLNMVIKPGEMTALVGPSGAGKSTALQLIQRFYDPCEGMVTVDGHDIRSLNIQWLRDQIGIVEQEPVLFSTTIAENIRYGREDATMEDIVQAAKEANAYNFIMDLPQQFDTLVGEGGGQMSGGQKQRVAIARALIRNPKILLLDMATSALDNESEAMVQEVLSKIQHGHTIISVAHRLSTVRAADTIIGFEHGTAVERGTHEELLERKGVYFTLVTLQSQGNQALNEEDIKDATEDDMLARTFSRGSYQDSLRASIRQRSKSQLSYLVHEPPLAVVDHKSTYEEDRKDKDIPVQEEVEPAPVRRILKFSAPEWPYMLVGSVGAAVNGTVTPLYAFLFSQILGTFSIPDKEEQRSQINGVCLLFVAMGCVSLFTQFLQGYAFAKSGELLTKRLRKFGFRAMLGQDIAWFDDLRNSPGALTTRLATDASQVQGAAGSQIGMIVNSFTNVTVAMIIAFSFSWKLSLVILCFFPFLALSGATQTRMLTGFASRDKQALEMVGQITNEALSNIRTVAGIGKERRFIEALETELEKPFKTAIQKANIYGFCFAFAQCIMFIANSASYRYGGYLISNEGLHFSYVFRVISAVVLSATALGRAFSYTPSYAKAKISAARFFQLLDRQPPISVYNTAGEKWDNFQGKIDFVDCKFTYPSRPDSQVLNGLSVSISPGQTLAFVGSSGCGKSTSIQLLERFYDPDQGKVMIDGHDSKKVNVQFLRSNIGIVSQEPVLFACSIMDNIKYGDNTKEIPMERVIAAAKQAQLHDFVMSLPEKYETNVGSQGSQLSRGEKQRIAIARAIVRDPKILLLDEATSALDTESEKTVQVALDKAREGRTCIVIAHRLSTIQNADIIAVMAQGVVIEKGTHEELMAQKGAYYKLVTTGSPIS
Chain of ATP-binding cassette sub-family C member 2 (Q92887 whole entry): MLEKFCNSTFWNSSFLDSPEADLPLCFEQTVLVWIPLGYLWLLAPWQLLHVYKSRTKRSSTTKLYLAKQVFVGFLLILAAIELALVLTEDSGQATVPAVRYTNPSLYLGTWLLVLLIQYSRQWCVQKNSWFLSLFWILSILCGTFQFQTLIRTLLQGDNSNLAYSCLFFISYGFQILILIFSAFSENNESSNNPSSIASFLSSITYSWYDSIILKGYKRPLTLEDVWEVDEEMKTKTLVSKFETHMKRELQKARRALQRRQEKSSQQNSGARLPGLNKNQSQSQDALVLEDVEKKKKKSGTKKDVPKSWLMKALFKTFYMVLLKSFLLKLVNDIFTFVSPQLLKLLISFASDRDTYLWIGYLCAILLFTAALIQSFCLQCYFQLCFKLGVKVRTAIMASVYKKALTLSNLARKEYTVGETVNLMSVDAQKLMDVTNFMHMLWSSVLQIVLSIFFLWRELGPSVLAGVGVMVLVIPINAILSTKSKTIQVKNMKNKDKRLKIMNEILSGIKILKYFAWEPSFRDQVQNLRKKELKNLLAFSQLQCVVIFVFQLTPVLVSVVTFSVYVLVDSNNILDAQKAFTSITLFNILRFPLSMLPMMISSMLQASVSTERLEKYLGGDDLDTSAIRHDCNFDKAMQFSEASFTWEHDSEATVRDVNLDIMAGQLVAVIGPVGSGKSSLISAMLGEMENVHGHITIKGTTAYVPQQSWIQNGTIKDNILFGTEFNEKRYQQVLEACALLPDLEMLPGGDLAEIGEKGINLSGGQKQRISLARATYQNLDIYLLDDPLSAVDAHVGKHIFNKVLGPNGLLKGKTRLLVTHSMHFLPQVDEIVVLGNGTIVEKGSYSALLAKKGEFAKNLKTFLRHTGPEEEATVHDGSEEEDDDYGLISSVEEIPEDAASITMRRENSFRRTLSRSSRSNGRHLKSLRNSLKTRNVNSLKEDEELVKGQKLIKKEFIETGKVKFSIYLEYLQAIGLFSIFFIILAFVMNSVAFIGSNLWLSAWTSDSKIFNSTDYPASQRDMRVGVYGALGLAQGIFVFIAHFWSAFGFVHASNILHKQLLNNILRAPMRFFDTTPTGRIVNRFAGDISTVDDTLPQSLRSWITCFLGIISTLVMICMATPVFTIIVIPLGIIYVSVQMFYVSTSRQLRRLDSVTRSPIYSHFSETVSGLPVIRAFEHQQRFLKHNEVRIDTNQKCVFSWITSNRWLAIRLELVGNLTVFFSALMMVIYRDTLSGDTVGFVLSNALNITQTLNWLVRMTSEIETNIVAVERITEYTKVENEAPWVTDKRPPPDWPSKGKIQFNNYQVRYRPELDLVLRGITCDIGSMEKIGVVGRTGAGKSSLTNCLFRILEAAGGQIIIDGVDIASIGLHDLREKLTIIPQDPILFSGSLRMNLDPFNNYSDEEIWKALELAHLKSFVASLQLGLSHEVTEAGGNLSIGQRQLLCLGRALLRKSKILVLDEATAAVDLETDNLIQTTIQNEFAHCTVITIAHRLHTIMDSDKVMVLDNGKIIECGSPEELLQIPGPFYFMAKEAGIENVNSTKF
Chain of ATP-binding cassette sub-family C member 3 (O15438 whole entry): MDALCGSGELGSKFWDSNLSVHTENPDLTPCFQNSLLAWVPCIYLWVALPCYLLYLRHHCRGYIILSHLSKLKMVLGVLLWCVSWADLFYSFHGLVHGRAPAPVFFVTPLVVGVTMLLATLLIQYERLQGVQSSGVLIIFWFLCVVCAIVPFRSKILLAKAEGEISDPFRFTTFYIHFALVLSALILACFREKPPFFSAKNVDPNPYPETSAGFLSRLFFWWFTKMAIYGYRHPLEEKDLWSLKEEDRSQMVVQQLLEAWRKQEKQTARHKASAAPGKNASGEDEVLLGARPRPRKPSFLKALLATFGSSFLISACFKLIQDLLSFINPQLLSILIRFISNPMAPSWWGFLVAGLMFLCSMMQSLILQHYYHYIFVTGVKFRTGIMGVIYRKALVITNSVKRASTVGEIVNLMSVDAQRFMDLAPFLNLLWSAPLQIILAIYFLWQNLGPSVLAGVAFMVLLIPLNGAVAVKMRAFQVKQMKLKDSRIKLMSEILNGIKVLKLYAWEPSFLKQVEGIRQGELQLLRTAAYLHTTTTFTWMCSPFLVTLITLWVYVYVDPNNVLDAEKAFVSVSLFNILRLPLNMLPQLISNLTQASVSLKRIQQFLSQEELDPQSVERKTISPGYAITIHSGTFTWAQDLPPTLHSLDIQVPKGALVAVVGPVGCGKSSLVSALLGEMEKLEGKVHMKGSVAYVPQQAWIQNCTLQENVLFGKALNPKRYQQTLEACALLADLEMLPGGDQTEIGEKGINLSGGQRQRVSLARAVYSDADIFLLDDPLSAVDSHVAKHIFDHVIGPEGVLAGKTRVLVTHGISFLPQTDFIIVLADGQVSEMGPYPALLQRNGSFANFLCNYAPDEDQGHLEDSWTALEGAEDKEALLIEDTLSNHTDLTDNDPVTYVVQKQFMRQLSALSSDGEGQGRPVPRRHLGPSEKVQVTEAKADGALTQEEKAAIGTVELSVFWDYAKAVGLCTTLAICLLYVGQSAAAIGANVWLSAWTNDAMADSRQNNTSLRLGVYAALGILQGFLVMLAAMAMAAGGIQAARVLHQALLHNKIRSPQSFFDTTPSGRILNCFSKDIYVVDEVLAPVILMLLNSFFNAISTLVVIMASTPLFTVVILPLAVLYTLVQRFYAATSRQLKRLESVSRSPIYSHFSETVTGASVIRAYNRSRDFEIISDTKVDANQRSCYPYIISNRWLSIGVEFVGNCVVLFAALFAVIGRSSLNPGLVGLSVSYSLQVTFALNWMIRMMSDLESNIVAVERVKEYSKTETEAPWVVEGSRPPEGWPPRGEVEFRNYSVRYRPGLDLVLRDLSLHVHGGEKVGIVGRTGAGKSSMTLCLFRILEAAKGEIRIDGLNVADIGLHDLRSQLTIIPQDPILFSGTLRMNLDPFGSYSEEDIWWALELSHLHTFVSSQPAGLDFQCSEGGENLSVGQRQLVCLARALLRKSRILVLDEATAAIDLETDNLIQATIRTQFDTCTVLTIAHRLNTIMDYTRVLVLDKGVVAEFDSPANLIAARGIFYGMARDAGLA

IC50 [2] [µM] | IC50 [3] [µM] | IC50 [4] [µM] | Structure (SMILES) | IC50 [1] [µM] | other results
> 133 | > 133 | > 133 | CCCCc1oc2ccccc2c1C(=O)c1cc(I)c(OCCN(CC)CC)c(I)c1 [AMIODARONE] |  | concentration at 24 h [8]: 1360 nM; AUC at 24 h [9]: 32.7 µM·h
 | 66 |  | COc1ccc2c(c1)c(CC(=O)O)c(C)n2C(=O)c1ccc(Cl)cc1 [INDOMETHACIN] |  | Css [10]: 1118 nM
> 133 | > 133 | > 133 | CC1=C(/C=C/C(C)=C/C=C/C(C)=C\C(=O)O)C(C)(C)CCC1 [ISOTRETINOIN] | 37.1 | AUC at 24 h [11]: 33.3 µM·h; concentration at 24 h [12]: 1390 nM; Ratio [13]: 0.037
58.8 | > 133 | 12.1 | COc1cc(C(=O)NS(=O)(=O)c2ccccc2C)ccc1Cc1cn(C)c2ccc(NC(=O)OC3CCCC3)cc12 [ZAFIRLUKAST] | 11.1 | AUC at 12 h [14]: 3.6 µM·h; concentration at 12 h [15]: 300 nM; Ratio [16]: 0.027; Ratio [17]: 0.005; Ratio [18]: 0.025
> 133 | > 133 | > 133 | COc1cc(N)c(Cl)cc1C(=O)NC1CCN(CCCOc2ccc(F)cc2)CC1OC.O (stereo not given) [CISAPRIDE MONOHYDRATE] | 22 | AUC at 6 h [19]: 4.78 µM·h; concentration at 6 h [20]: 797 nM; Ratio [21]: 0.036
 | 23.9 | 6.3 | COc1ccc2c(c1)C(=O)N(CCc1ccc(S(=O)(=O)NC(=O)NC3CCCCC3)cc1)C(=O)C2(C)C [GLIQUIDONE] | 11.6 | AUC at 24 h [22]: 9.67 µM·h; concentration at 24 h [23]: 403 nM; Ratio [24]: 0.035; Ratio [25]: 0.017; Ratio [26]: 0.064

Structure (SMILES) | IC50 [2] [µM] | IC50 [3] [µM] | IC50 [4] [µM] | IC50 [1] [µM] | other results
COCCCOc1ccnc(C[S+]([O-])c2nc3ccccc3[n-]2)c1C.[Na+] (stereo not given) [RABEPRAZOLE SODIUM] | > 133 | > 133 | > 133 | 33.9 | AUC at 12 h [5]: 14.5 µM·h; concentration at 12 h [6]: 1210 nM; Ratio [7]: 0.036
